In US20260092061A1, “COMPOUNDS FOR TARGETED PROTEIN DEGRADATION” (Amphista Therapeutics Limited, priority 2022, published 2026) one finds DC50 and Dmax data, which are given here for 14 molecules.

Bounds are passed on as bounds.

The target of experiment [1] is T1, BRD9 (Homo sapiens, UniProt Q9H8M2).
T1 sequence (Q9H8M2 1-597): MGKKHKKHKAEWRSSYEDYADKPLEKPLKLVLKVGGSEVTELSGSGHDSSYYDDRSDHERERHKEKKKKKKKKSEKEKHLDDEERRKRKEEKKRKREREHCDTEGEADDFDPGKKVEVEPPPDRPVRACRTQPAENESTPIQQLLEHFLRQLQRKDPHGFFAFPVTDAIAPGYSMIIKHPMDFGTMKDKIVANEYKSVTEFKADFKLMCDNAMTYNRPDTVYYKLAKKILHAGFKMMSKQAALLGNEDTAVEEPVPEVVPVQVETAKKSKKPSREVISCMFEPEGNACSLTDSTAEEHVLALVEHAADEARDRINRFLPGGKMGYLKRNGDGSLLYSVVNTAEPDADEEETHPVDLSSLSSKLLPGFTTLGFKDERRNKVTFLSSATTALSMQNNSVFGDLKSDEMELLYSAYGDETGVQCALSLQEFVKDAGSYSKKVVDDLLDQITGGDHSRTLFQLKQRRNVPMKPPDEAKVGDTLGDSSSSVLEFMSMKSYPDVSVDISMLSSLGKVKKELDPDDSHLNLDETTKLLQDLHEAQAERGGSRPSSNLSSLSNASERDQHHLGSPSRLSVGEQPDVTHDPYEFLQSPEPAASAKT
Put plainly: BRD9 degradation, HiBiT-BRD9 KI HEK293 (LgBiT) cells, NanoGlo Lytic Endpoint assay (Assay Protocol 1). Conditions: BRD9 degradation. Type of experiment: cell-based. In outline:
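HiBiT-tagged BRD9 knock-in HEK293 (LgBiT) cells exposed to compounds for 6 h at 37 °C, 5% CO2. Residual BRD9 measured by HiBiT lytic luminescence. % BRD9 remaining normalised to DMSO-treated cells (high) and no-cell wells (low).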

Experiment [2] addresses T1, BRD9. The experiment is described as follows: Degradation of BRD9 (IF), immunofluorescence in MV4-11 cells, 24 hours (Assay Protocol 2). Type of experiment: cell-based. Set-up: A suspension of MV4-11 cells (ATCC CRL-9591) was prepared; host or cells: MV4-11. The procedure, abridged:
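MV4-11 cells treated with compound 24 h at 37° C., then fixed, permeabilised and immunostained for BRD9 (anti-BRD9 E4Q3F, Alexa 647 secondary, Hoechst counterstain). High-content imaging quantified nuclear BRD9 signal; % BRD9 remaining normalised to DMSO and 100 nM CFT-8634 controls.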

The mark [3] stands for this setting: Assay protocol 1, read-out: DC50.
The mark [4] stands for this setting: HEK293, Assay protocol 1, read-out: Dmax.
The mark [5] stands for this setting: Assay protocol 2, BRD9 degradation, read-out: DC50.
[6] abbreviates: MV4-11, Assay protocol 2, BRD9 degradation, read-out: Dmax.
[7] abbreviates: Table 4, determined according to Assay Protocol 1, read-out: DC50^1.
Setting [8] is: MV4-11, Table 4, BRD9 degradation, determined according to Assay Protocol 2, read-out: Dmax^2.
[9] abbreviates: Table 4, BRD9 degradation, determined according to Assay Protocol 2, read-out: DC50^2.

With `COc1cc(-c2cn(C)c(=O)c(C)c2C)cc(OC)c1CN1CCN(Cc2cccc3c2CCN(C(=O)/C(C#N)=C/c2ccnc(C)n2)C3C)CC1` (mixture of isomers) [Compound B9, (E/Z)-2-(5-((4-(2,6-dimethoxy-4-(1,4,5-trimethyl-6-oxo-1,6-dihydropyridin-3-yl)benzyl)piperazin-1-yl)methyl)-1-methyl-1,2,3,4-tetrahydroisoquinoline-2-carbonyl)-3-(2-methylpyrimidin-4-yl)acrylonitrile], the half-maximal degradation concentration (DC50) at BRD9 [1] (setting [3]) and on BRD9 [2] (setting [5]) was < 1.25 nM each time. Moreover, the Dmax on BRD9 [1] (setting [4]) and on BRD9 [2] (setting [6]) was > 75% in each case.
On to `COc1cc(-c2cn(C)c(=O)c(C)c2C)cc(OC)c1CN1CCN(Cc2cccc3c2CCN(C(=O)/C(C#N)=C/C2(C)CC2)C3C)CC1` (mixture of isomers) [Compound C27, (E/Z)-2-(5-((4-(2,6-dimethoxy-4-(1,4,5-trimethyl-6-oxo-1,6-dihydropyridin-3-yl)benzyl)piperazin-1-yl)methyl)-1-methyl-1,2,3,4-tetrahydroisoquinoline-2-carbonyl)-3-(1-methylcyclopropyl)acrylonitrile], for which the half-maximal degradation concentration (DC50) on BRD9 [1] (setting [3]) and on BRD9 [2] (setting [5]) was > 1000 nM each time. Besides, the Dmax on BRD9 [1] (setting [4]) and at BRD9 [2] (setting [6]) was 40 to 70% each time.
In the case of `COc1cc(-c2cn(C)c(=O)c(C)c2C)cc(OC)c1CN1CCN(Cc2cccc3c2CCN(C(=O)/C(C#N)=C/C(C)(C)C)C3(C)C)C2(CC2)C1` [Compound C9, (E/Z)-2-(5-((7-(2,6-dimethoxy-4-(1,4,5-trimethyl-6-oxo-1,6-dihydropyridin-3-yl)benzyl)-4,7-diazaspiro[2.5]octan-4-yl)methyl)-1,1-dimethyl-1,2,3,4-tetrahydroisoquinoline-2-carbonyl)-4,4-dimethylpent-2-enenitrile], the half-maximal degradation concentration (DC50) at BRD9 [1] (setting [3]) and at BRD9 [2] (setting [5]) was 25 to 1000 nM throughout. The figures for the Dmax at BRD9 [1] (setting [4]) and on BRD9 [2] (setting [6]) were 70 to 75% and 40 to 70%, respectively.
As to `COc1cc(-c2cn(C)c(=O)c(C)c2C)cc(OC)c1CN1C2CC1CN(Cc1cccc3c1CCN(C(=O)/C(C#N)=C/C(C)(C)C)C3C)C2` (mixture of isomers) [Compound B13, (E/Z)-2-(5-((6-(2,6-dimethoxy-4-(1,4,5-trimethyl-6-oxo-1,6-dihydropyridin-3-yl)benzyl)-3,6-diazabicyclo[3.1.1]heptan-3-yl)methyl)-1-methyl-1,2,3,4-tetrahydroisoquinoline-2-carbonyl)-4,4-dimethylpent-2-enenitrile], the DC50 on BRD9 [1] (setting [3]) fell in the range of 10 to 25 nM; at BRD9 [2] (setting [5]), 1.25 to 10 nM. Besides, the Dmax is > 75% at BRD9 [1] (setting [4]) and 40 to 70% on BRD9 [2] (setting [6]).
As for `CCCC(c1ccc(C(=O)N(C)CCCCCCC(=O)N2CCN(Cc3c(OC)cc(-c4cn(C)c(=O)c(C)c4C)cc3OC)CC2)cc1)N(C)C(=O)/C(C#N)=C/c1nccs1` (mixture of isomers) [Compound B182, (E/Z)-4-(1-(2-cyano-N-methyl-3-(thiazol-2-yl)acrylamido)butyl)-N-(7-(4-(2,6-dimethoxy-4-(1,4,5-trimethyl-6-oxo-1,6-dihydropyridin-3-yl)benzyl)piperazin-1-yl)-7-oxoheptyl)-N-methylbenzamide], the figures for the DC50 on BRD9 [1] (setting [3]) and on BRD9 [2] (setting [5]) were 25 to 1000 nM and 1.25 to 10 nM, respectively. Moreover, the Dmax at BRD9 [1] (setting [4]) and at BRD9 [2] (setting [6]) was 40 to 70% in each case.
Take `COc1cc(-c2cn(C)c(=O)c(C)c2C)cc(OC)c1CN1CCC2(CC1)CCN(c1cccc3c1CCN(C(=O)/C(C#N)=C/C(C)(C)C)C3C)CC2` (mixture of isomers) [Compound B39, (E/Z)-2-(5-(9-(2,6-dimethoxy-4-(1,4,5-trimethyl-6-oxo-1,6-dihydropyridin-3-yl)benzyl)-3,9-diazaspiro[5.5]undecan-3-yl)-1-methyl-1,2,3,4-tetrahydroisoquinoline-2-carbonyl)-4,4-dimethylpent-2-enenitrile]: the half-maximal degradation concentration (DC50) at BRD9 [1] (setting [3]) is 25 to 1000 nM; on BRD9 [2] (setting [5]), 10 to 25 nM. Besides, the figures for the Dmax at BRD9 [1] (setting [4]) and at BRD9 [2] (setting [6]) were > 75% and 40 to 70%, respectively.
On the same counts, the results for `COc1cc(-c2cn(C)c(=O)c(C)c2C)cc(OC)c1CN(C)Cc1ccc(C2CCCN2C(=O)/C(C#N)=C/C(C)(C)C)cc1` (mixture of isomers) [Compound B34] are 10 to 25 nM, 1.25 to 10 nM, 40 to 70% and 40 to 70%.
Turning to `COc1cc(-c2cn(C)c(=O)c3cnccc23)cc(OC)c1CN1CCN(Cc2cccc3c2CCN(C(=O)/C(C#N)=C/C2(C)COC2)C3C)CC1` (mixture of isomers) [Compound A27, (E/Z)-2-(5-((4-(2,6-dimethoxy-4-(2-methyl-1-oxo-1,2-dihydro-2,7-naphthyridin-4-yl)benzyl)piperazin-1-yl)methyl)-1-methyl-1,2,3,4-tetrahydroisoquinoline-2-carbonyl)-3-(3-methyloxetan-3-yl)acrylonitrile], on BRD9 [1] (HEK293, Table 2, Assay Protocol 1, 1 μM compound at 6 h of treatment, read-out: Assay 1 Dmax), the Dmax at 1 µM is 40 to 70%. Also, the DC50 was in the range of 1.25 to 10 nM on BRD9 [1] (Table 2, Assay Protocol 1, 6 h of treatment, read-out: Assay 1 DC50) and 1.25 to 10 nM at BRD9 [2] (Table 2, BRD9 degradation (IF), Assay Protocol 2, MV4-11 cells, read-out: Assay 2 DC50). The Dmax at BRD9 [2] (MV4-11, 24 h, Table 2, BRD9 degradation (IF), Assay Protocol 2, MV4-11 cells, read-out: Assay 2 DCmax) was in the range of 40 to 70%.
On to `COc1cc(-c2cn(C)c(=O)c(C)c2C)cc(OC)c1CN1CCC2(CC1)CN(c1cccc(C3CCCN3C(=O)C(C#N)=CC(C)(C)C)c1)C2` (single isomer, unassigned) [Compound B43, 2-(2-(3-(7-(2,6-dimethoxy-4-(1,4,5-trimethyl-6-oxo-1,6-dihydropyridin-3-yl)benzyl)-2,7-diazaspiro[3.5]nonan-2-yl)phenyl)pyrrolidine-1-carbonyl)-4,4-dimethylpent-2-enenitrile], for which the 50% degradation concentration (DC50) is < 1.25 nM on BRD9 [1] (setting [3]) and 1.25 to 10 nM at BRD9 [2] (setting [5]). Moreover, the Dmax at BRD9 [1] (setting [4]) and on BRD9 [2] (setting [6]) was 40 to 70% throughout.
For the molecule `COc1ccc(C2CC(C(=O)N3CCN(Cc4c(OC)cc(-c5cn(C)c(=O)c(C)c5C)cc4OC)CC3)CN(C(=O)/C(C#N)=C/C(C)(C)C)C2)cc1` (stereo not shown) [Compound B208], the Dmax on BRD9 [1] (HEK293, Table 4, determined according to Assay Protocol 1, read-out: Dmax^1) was > 70%; at BRD9 [2] (setting [8]), > 70%. Moreover, the DC50 at BRD9 [1] (setting [7]) and on BRD9 [2] (setting [9]) was < 25 nM in each case.
Regarding `COc1cc(-c2cn(C)c(=O)c(C)c2C)cc(OC)c1CN(C)Cc1cccc2c1CCN(C(=O)/C(C#N)=C/c1cccc(C(F)(F)F)n1)C2C` (mixture of isomers) [Compound B15, (E/Z)-2-(5-(((2,6-dimethoxy-4-(1,4,5-trimethyl-6-oxo-1,6-dihydropyridin-3-yl)benzyl)(methyl)amino)methyl)-1-methyl-1,2,3,4-tetrahydroisoquinoline-2-carbonyl)-3-(6-(trifluoromethyl)pyridin-2-yl)acrylonitrile], the DC50 was 1.25 to 10 nM on BRD9 [1] (setting [3]) and < 1.25 nM at BRD9 [2] (setting [5]). The Dmax on BRD9 [1] (setting [4]) and at BRD9 [2] (setting [6]) was > 75% in each case.
Regarding `COc1cc(-c2cn(C)c(=O)c(C)c2C)cc(OC)c1CN1CCN(C(=O)c2ccc(C3CCCN3C(=O)/C(C#N)=C/C(C)(C)C)cc2)CC1` (mixture of isomers) [Compound B55, (E/Z)-2-(2-(4-(4-(2,6-dimethoxy-4-(1,4,5-trimethyl-6-oxo-1,6-dihydropyridin-3-yl)benzyl)piperazine-1-carbonyl)phenyl)pyrrolidine-1-carbonyl)-4,4-dimethylpent-2-enenitrile], the DC50 was in the range of 10 to 25 nM at BRD9 [1] (setting [3]) and 25 to 1000 nM on BRD9 [2] (setting [5]). In addition, the Dmax on BRD9 [1] (setting [4]) and on BRD9 [2] (setting [6]) was > 75% each time.
Consider `COc1cc(-c2cn(C)c(=O)c(C)c2C)cc(OC)c1CN1CCN(Cc2cccc(C3CCCN3C(=O)/C(C#N)=C/c3cccc(C(F)(F)F)n3)c2)CC1` (stereo not shown) [Compound B26], for which the half-maximal degradation concentration (DC50) was 1.25 to 10 nM on BRD9 [1] (setting [3]) and < 1.25 nM on BRD9 [2] (setting [5]). Also, the Dmax on BRD9 [1] (setting [4]) and on BRD9 [2] (setting [6]) was > 75% each time.
Regarding `COc1cc(-c2cn(C)c(=O)c(C)c2C)cc(OC)c1CN(C)C(=O)/C(C#N)=C/c1cccc(Br)n1` [BRD9ab, (E/Z)-3-(6-bromopyridin-2-yl)-2-cyano-N-(2,6-dimethoxy-4-(1,4,5-trimethyl-6-oxo-1,6-dihydropyridin-3-yl)benzyl)-N-methylacrylamide], the DC50 at BRD9 [1] (setting [7]) and at BRD9 [2] (setting [9]) was < 25 nM throughout. The Dmax at BRD9 [2] (setting [8]) lay within 50 to 70%.
